Common to all, as to assay type: cell-based
In experiment [1] the test system is IL6. Put plainly: LPS stimulated IL6 inhibition assay in PBMC. The settings on record: Homo sapiens, PBMC, 24 h, human PBMCs, LPS stimulation, compound overnight, IL6 by MSD after 24 hrs; for Dmax: read-out: LPS Stim IL6 inhibition Dmax; for IC50: read-out: LPS stim IL6 inhibition IC50. As to the method: (§1) IL-1β, LPS, or R848 Stimulated IL6 Inhibition and IL-1β Stimulated IL8 Inhibition Assay
(§2) Human PBMC cells were seeded at 2.0×10^6 cells/mL, treated with compound overnight, and dosed with the EC50 concentration of each stimulant (either IL-1B. LPS, or R848) was determined for each donor. After 24 hrs, media was collected and analyzed by MSD for IL6 and/or IL8 levels.

Experiment [2] concerns IL6. Description: R848 stimulated IL6 inhibition assay in PBMC. The settings on record: PBMC, human PBMCs, R848 stimulation, compound overnight, IL6 by MSD after 24 hrs; for Dmax: Homo sapiens, 24 h, read-out: R848 stim IL6 inhibition Dmax; for IC50: read-out: R848 stim IL6 inhibition IC50. As to the method:
as §1, §2

A further experiment addresses T1, IRAK-4 (Homo sapiens, UniProt Q9NWZ3).
T1 sequence (Q9NWZ3 1-460): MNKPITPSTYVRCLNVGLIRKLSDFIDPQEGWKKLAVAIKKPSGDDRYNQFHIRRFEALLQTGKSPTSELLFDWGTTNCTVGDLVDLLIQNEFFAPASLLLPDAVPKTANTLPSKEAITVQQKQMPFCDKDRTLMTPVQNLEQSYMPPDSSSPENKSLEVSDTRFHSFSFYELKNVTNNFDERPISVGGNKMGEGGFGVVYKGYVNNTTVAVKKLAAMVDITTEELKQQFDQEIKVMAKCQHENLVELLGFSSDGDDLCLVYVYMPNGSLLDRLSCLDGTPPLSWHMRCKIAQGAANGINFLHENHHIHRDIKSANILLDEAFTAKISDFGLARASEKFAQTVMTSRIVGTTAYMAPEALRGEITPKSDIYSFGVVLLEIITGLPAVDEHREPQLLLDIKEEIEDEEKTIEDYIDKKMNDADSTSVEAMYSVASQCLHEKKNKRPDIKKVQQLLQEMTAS
Description: IRAK-4 ELISA, PBMC degradation. Details: endogenous in cells; host or cells: PBMC. The settings on record: treated overnight. In a few lines: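 ELISA quantification of cellular IRAK-4 after compound treatment overnight; PBMC were plated at 2×10^6/ml, OCI-Ly10 at 1×10^6/ml.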

Structures are written as SMILES.

One may read the IC50 as the concentration at which inhibition is half-maximal. For orientation: DC50 means the concentration giving 50% degradation.

`O=C1CCC(N2Cc3c(F)cc(N4CC(F)(CN5CCC(n6cc7cc(NC(=O)c8cnn9cccnc89)c(OCC8CC8)cc7n6)CC5)C4)cc3C2=O)C(=O)N1` (centres unmarked) [Example 268, N-[6-(cyclopropylmethoxy)-2-[1-({1-[2-(2,6-dioxopiperidin-3-yl)-7-fluoro-3-oxo-2,3-dihydro-1H-isoindol-5-yl]-3-fluoroazetidin-3-yl}methyl)piperidin-4-yl]-2H-indazol-5-yl]pyrazolo[1,5-a]pyrimidine-3-carboxamide]: in the experiment on IL6 [1], the Dmax lay in the range of 70 to 80% and the IC50 is 10 to 50 nM. Also, in the experiment on IL6 [2], the Dmax is ≥ 90% and the IC50 lay in the range of 10 to 50 nM. On IRAK-4, the DC50 was < 1 nM, the Dmax was ≥ 90% and the “PBMC DC90” value was “A (A represents a DC90 value <10.0 nM)”.
For the molecule `O=C1CCC(N2C(=O)c3ccc(N4CCN(C[C@H]5CC[C@H](n6cc7cc(NC(=O)c8cnn9cccnc89)c(OCC8CC8)cc7n6)CC5)CC4)cc3C2=O)C(=O)N1` (some centres unmarked) [Example 375], in the experiment with IL6 [1], the Dmax lay in the range of 70 to 80% and the IC50 is < 10 nM. In the experiment with IL6 [2], the Dmax was ≥ 90% and the IC50 lay in the range of 10 to 50 nM. In addition, at IRAK-4, the 50% degradation concentration (DC50) is 1 to 5 nM, the Dmax is ≥ 90% and the “PBMC DC90” value is “A (A represents a DC90 value <10.0 nM)”.
As for `O=C1CCC(NC(=O)c2ccc(N3CCC(CN4CCC(N5Cc6cc(NC(=O)c7cnn8cccnc78)c(OCC(F)F)cc6C5=O)CC4)CC3)cc2F)C(=O)N1` (centres unmarked) [Example 305], in the experiment with IL6 [1], the Dmax is < 70% and the IC50 is 10 to 50 nM. In addition, in the experiment on IL6 [2], the Dmax was < 70% and the IC50 is 50 to 100 nM. Also, at IRAK-4, the DC50 lay within 5 to 10 nM; the Dmax fell in the range of 80 to 90%; the “PBMC DC90” value was “C (C represents a DC90 value ≥25.0 nM and <50 nM)”.
As to `CC(C)Oc1cc2c(cc1NC(=O)c1cnn3cccnc13)CN([C@H]1CC[C@H](N(C)C3CN(c4ccc5c(c4F)CN(C4CCC(=O)NC4=O)C5=O)C3)CC1)C2=O` (some centres unmarked) [Example 364], in the experiment on IL6 [1], the Dmax was < 70% and the IC50 is 50 to 100 nM. Also, in the experiment on IL6 [2], the Dmax was ≥ 90% and the IC50 is < 10 nM. Besides, on IRAK-4, the DC50 lay within 1 to 5 nM, the Dmax is ≥ 90% and the “PBMC DC90” value is given as “A (A represents a DC90 value <10.0 nM)”.
With `O=C1CCC(N2C(=O)c3ccc(N4CC(F)(CN5CCC(n6cc7cc(NC(=O)c8cnn9cccnc89)c(N8CCC(N9CCC9)CC8)cc7n6)CC5)C4)cc3C2=O)C(=O)N1` (centres unmarked) [Example 243], in the experiment with IL6 [1], the Dmax was < 70% and the IC50 fell in the range of 10 to 50 nM. For the same molecule, in the experiment on IL6 [2], the Dmax is ≥ 90% and the IC50 was 10 to 50 nM. At IRAK-4, the DC50 was in the range of 5 to 10 nM, the Dmax is 80 to 90% and the “PBMC DC90” value is “D (D represents a DC90 value ≥50 nM)”.
Turning to `CC(C)Oc1cc2c(cc1NC(=O)c1cnn3cc(Cl)cnc13)CN(C1CCN(CC3CCN(c4ccc5c(c4)C(=O)N(C4CCC(=O)NC4=O)C5=O)CC3)CC1)C2=O` (centres unmarked) [Example 43], in the experiment on IL6 [1], the Dmax is < 70% and the IC50 was < 10 nM. Further, in the experiment on IL6 [2], the Dmax was 80 to 90% and the IC50 fell in the range of 10 to 50 nM. In addition, on IRAK-4, the DC50 was 1 to 5 nM; the Dmax was ≥ 90%; the “PBMC DC90” value was “B (B represents a DC90 value ≥10.0 nM and <25.0 nM)”.
Regarding `O=C1CCC(N2C(=O)c3ccc(N4CCN(C[C@H]5CC[C@H](N6Cc7cc(NC(=O)c8cnn9cccnc89)c(N8CCN(CC(F)F)CC8)cc7C6=O)CC5)CC4)cc3C2=O)C(=O)N1` (some centres unmarked) [371′], in the experiment with IL6 [1], the Dmax is < 70% and the IC50 is 10 to 50 nM. In addition, in the experiment on IL6 [2], the Dmax is ≥ 90% and the half-inhibitory concentration (IC50) lay in the range of 10 to 50 nM. Further, at IRAK-4, the DC50 was in the range of 1 to 5 nM; the Dmax was ≥ 90%; the “PBMC DC90” value was “B (B represents a DC90 value ≥10.0 nM and <25.0 nM)”.
As for `O=C1CCC(N2Cc3c(ccc(N4CCC(CN5CCC(n6cc7cc(NC(=O)c8cnn9cccnc89)c(N8CCN(CC(F)F)CC8)cc7n6)CC5)CC4)c3F)C2=O)C(=O)N1` (centres unmarked) [Example 158], in the experiment on IL6 [1], the Dmax was 80 to 90% and the IC50 is < 10 nM. In the experiment on IL6 [2], the Dmax is ≥ 90% and the IC50 is < 10 nM. Further, at IRAK-4, the DC50 was < 1 nM, the Dmax was ≥ 90% and the “PBMC DC90” value is reported as “A (A represents a DC90 value <10.0 nM)”.
On to `CC(C)Oc1cc2c(cc1NC(=O)c1cnn3cccnc13)CN(C1CCN(CC3(F)CN(c4cc(F)c5c(c4)C(=O)N(C4CCC(=O)NC4=O)C5)C3)CC1)C2=O` (centres unmarked) [Example 108], for which, in the experiment with IL6 [1], the Dmax fell in the range of 80 to 90% and the IC50 lay within 10 to 50 nM. In the experiment on IL6 [2], the Dmax is ≥ 90% and the IC50 lay in the range of 10 to 50 nM. Besides, on IRAK-4, the DC50 lay in the range of 1 to 5 nM; the Dmax was ≥ 90%; the “PBMC DC90” value is “B (B represents a DC90 value ≥10.0 nM and <25.0 nM)”.
For `CN(C1CN(c2ccc3c(c2)CN(C2CCC(=O)NC2=O)C3=O)C1)[C@H]1CC[C@H](N2Cc3cc(NC(=O)c4cnn5cccnc45)c(N4CCC(N5CCC5)CC4)cc3C2=O)CC1` (some centres unmarked) [Example 370], in the experiment with IL6 [1], the Dmax was ≥ 90% and the IC50 is < 10 nM. Besides, in the experiment on IL6 [2], the Dmax was ≥ 90% and the half-maximal inhibitory concentration (IC50) was < 10 nM. Moreover, on IRAK-4, the half-maximal degradation concentration (DC50) fell in the range of 1 to 5 nM, the Dmax is ≥ 90% and the “PBMC DC90” value was “A (A represents a DC90 value <10.0 nM)”.
For `CC(C)Oc1cc2c(cc1NC(=O)c1cnn3cccnc13)CN(C[C@@H](F)C1CCN(CC3CN(c4cccc5c4n(C)c(=O)n5C4CCC(=O)NC4=O)C3)CC1)C2=O` (some centres unmarked) [Example 382], in the experiment with IL6 [1], the Dmax lay in the range of 70 to 80% and the IC50 was 10 to 50 nM. In the experiment on IL6 [2], the Dmax was ≥ 90% and the 50% inhibitory concentration (IC50) is 10 to 50 nM. At IRAK-4, the DC50 was < 1 nM, the Dmax is ≥ 90% and the “PBMC DC90” value was “A (A represents a DC90 value <10.0 nM)”.
As for `O=C1CCC(N2Cc3cc(N4CCC(O)(CN5CCC(n6cc7cc(NC(=O)c8cnn9cccnc89)c(OCC8CC8)cc7n6)CC5)CC4)ccc3C2=O)C(=O)N1` (centres unmarked) [Example 258], in the experiment on IL6 [1], the Dmax was in the range of 70 to 80% and the IC50 was < 10 nM. In the experiment with IL6 [2], the Dmax is ≥ 90% and the half-inhibitory concentration (IC50) was 10 to 50 nM. Also, on IRAK-4, the 50% degradation concentration (DC50) is < 1 nM, the Dmax lay in the range of 80 to 90% and the “PBMC DC90” value is reported as “A (A represents a DC90 value <10.0 nM)”.
On to `O=C1CC[C@@H](N2C(=O)c3ccc(N4CC(F)(CN5CCC(n6cc7cc(NC(=O)c8cnn9cccnc89)c(OCC8CC8)cc7n6)CC5)C4)cc3C2=O)C(=O)N1` [Example 253], for which, in the experiment on IL6 [1], the Dmax was < 70% and the IC50 was 10 to 50 nM. In addition, in the experiment with IL6 [2], the Dmax was ≥ 90% and the IC50 lay within 10 to 50 nM. At IRAK-4, the DC50 is 1 to 5 nM; the Dmax is ≥ 90%; the “PBMC DC90” value was “B (B represents a DC90 value ≥10.0 nM and <25.0 nM)”.
For `CC(C)Oc1cc2c(cc1NC(=O)c1cnn3cccnc13)CN(C1CCN(CC3CCN(c4ccc5c(c4F)CN(C4CCC(=O)NC4=O)C5=O)CC3)CC1)C2=O` (centres unmarked) [Example 41], in the experiment on IL6 [1], the Dmax lay within 70 to 80% and the IC50 lay within 10 to 50 nM. Also, in the experiment with IL6 [2], the Dmax is ≥ 90% and the IC50 was < 10 nM. In addition, on IRAK-4, the DC50 is < 1 nM, the Dmax lay within 80 to 90% and the “PBMC DC90” value was “A (A represents a DC90 value <10.0 nM)”.
`O=C1CCC(N2C(=O)c3ccc(N4CCC(CN5CCC(N6Cc7cc(NC(=O)c8cnn9cccnc89)c(N8CCN(C9CC(F)(F)C9)CC8)cc7C6=O)CC5)CC4)cc3C2=O)C(=O)N1` (centres unmarked) [Example 53]: in the experiment on IL6 [1], the Dmax was < 70% and the IC50 was in the range of 50 to 100 nM. In the experiment on IL6 [2], the Dmax fell in the range of 70 to 80% and the IC50 is 10 to 50 nM. On IRAK-4, the DC50 lay within 1 to 5 nM; the Dmax is ≥ 90%; the “PBMC DC90” value is “B (B represents a DC90 value ≥10.0 nM and <25.0 nM)”.
Turning to `O=C1CCC(N2Cc3c(ccc(N4CCC(CN5CCC(n6cc7cc(NC(=O)c8cnn9cccnc89)c(OCC(F)F)cc7n6)CC5)CC4)c3F)C2=O)C(=O)N1` (centres unmarked) [Example 154], in the experiment on IL6 [1], the Dmax lay in the range of 80 to 90% and the IC50 is < 10 nM. In the experiment with IL6 [2], the Dmax is ≥ 90% and the IC50 is < 10 nM. At IRAK-4, the DC50 is < 1 nM, the Dmax was 80 to 90% and the “PBMC DC90” value is given as “A (A represents a DC90 value <10.0 nM)”.
For `CC(C)Oc1cc2nn([C@H]3CC[C@H](OC4CN(c5ccc6c(c5)CN(C5CCC(=O)NC5=O)C6=O)C4)CC3)cc2cc1NC(=O)c1cnn2cccnc12` (some centres unmarked) [Example 424], in the experiment on IL6 [1], the Dmax is < 70% and the IC50 was < 10 nM. In addition, in the experiment on IL6 [2], the Dmax lay in the range of 80 to 90% and the half-inhibitory concentration (IC50) was < 10 nM. Further, at IRAK-4, the DC50 lay within 1 to 5 nM; the Dmax was 80 to 90%; the “PBMC DC90” value is “B (B represents a DC90 value ≥10.0 nM and <25.0 nM)”.

Values taken from patent US20230099344A1, “COMPOUNDS AND METHODS FOR THE TARGETED DEGRADATION OF IRAK-4” (Arvinas Operations, Inc., priority 2021, published 2023).
